{"source": "patent US20240368151A1", "about": "“NOVEL ERGOLINES AND METHODS OF TREATING MOOD DISORDERS” (priority 2021, published 2024)", "tested_on": "C57BL/6 mice", "assay": "Marble burying test (MBT) in mice", "type": "in vivo, mouse", "conditions": "SC, 30-minute period", "procedure": "Compound 1 produced an anxiolytic-like effect in the marble burying test (MBT) in C57BL/6 mice (FIG. 3).\nAnimals. Adult male C57BL/6 mice, aged 8-10 weeks (body weight 20-25 g) were used in these experiments. Animals were housed under controlled temperatures and 12-hour light/dark cycles (lights on between 07:00-19:00 h), with ad libitum food and water. This study was carried out in strict accordance with the requirements of the Committee for the Purpose of Control and Supervision of Experiments on Animals (CPCSEA), India. All efforts were made to minimize suffering.\nDrugs and Drug Administration. Compound 1 was synthesized as described above. Desipramine HCl was commercially obtained. The test compound, vehicle, and the positive control desipramine were administered subcutaneously (SC), with doses calculated based on the freebase. Normal saline was used as the vehicle. All compounds were administered at a volume of 10 mL/kg. All treatments were administered 30 minutes prior to the start of behavioral testing. Group size was n=9-10 per treatment.\nMarble Burying Test (MBT). […] Mice were handled for about 2 min daily for the 3 days prior to the beginning of the experimental procedure. […] The total number of marbles buried were counted in three 10-minute time bins (total 30 minutes). […]"}
{"smiles": "CCCN1C[C@H](C(=O)N(CC)CC)C=C2c3cccc4[nH]cc(c34)C[C@H]21", "note": "[Compound 1, (6aR,9R)-N,N-diethyl-7-propyl-4,6,6a,7,8,9-hexahydroindolo[4,3-fg]quinoline-9-carboxamide]", "values": [{"measurement": "number of marbles buried compared to vehicle, in words", "result": "reduced the number of marbles buried"}]}
